# Legend:
# [1] = Serum concentration of PEG after single IV infusion, ascending dose study; assay type: in vivo, human; settings: for peak concentration (Cmax), mean serum concentration: healthy subjects
# [2] = tested on: acute hemolysis; assay: Hemoglobin during intensive dosing for acute hemolysis in PNH patients; assay type: in vivo, human; settings: patients with and without RBC transfusion (FIG. 6)
# Text: (§1) Eligibility criteria for the intensive dosing regimen included lactate dehydrogenase (LDH) >2× the upper limit of normal (ULN) and one new or worsening sign or symptom of hemolysis (e.g., decreased hemoglobin (Hb), hemoglobinuria, or fatigue).
# (§2) Patients who experienced additional acute hemolysis events after receiving intensive PEG treatment received additional doses of intensive SC PEG or intensive IV PEG. […] Analyzed data relates to the first event if a patient experienced multiple acute hemolysis events.
# (§3) Levels of Hb (on day 1) and LDH (on day 1, day 2, days 7-12, days 14-19) during the event of acute hemolysis were determined. […] For each patient, at least 6 days were between the measurements on day 7-12 and day 14-19. Safety was evaluated by the incidence and severity of adverse events.
# [3] = Safety in healthy volunteers, ascending dose study
# Protocol: (§4) Subjects were monitored during a safety period from Day 2 to 8 by physical examination, ECG, hematology, serum chemistry, monitoring for injection site reaction and treatment emergent adverse events (TEAEs). Follow-up safety assessments were performed on Days 15, 22, 29, and 43.
# [4] = tested on: acute hemolysis; assay: LDH during intensive dosing for acute hemolysis in PNH patients; assay type: in vivo, human
# Text: as §1, §2, §3
# [5] = human, in vivo
# Protocol: as §4
# [6] = tested on: alternative complement pathway hemolytic activity (AH50); assay: AH50 hemolytic assay on serum after single IV infusion; assay type: in vivo, human
# Protocol: AH50 Method: AH50 was measured by a hemolytic assay based on lysis of rabbit red blood cells (RA) due to activation of complement on the cell's surface. The AH50 (50% Alternative Complement Hemolytic dose) was determined for each component by adding a limiting amount of the test serum or plasma. For this assay, the buffers are created such as to block activity of the classical pathway, which requires calcium. Serial dilutions of the test specimen were mixed with equal volumes of the RA. This functional assay measured the amount of hemoglobin that was released when the target cells were lysed by the action of complement, and from this, the percentage of the cells that had been lysed was calculated. The major peak of the hemoglobin spectrum was read at 415 nm wavelength. For each assay the run was verified with a five-point standard and five points of characterized QC control.
# AH50 Calculations: For verifiable continuity between assay runs, the AH50 assay was performed using a human serum standard with known AH50 activity. […] If the dilution series produced lysis that spanned the 50% point, the three points closest to the 50% point were used to determine the slope and intercept of the line by linear regression. If the percent lysis was very low and none of the dilutions produced 50% lysis, then the two highest points in the series were used, because the slope changes drastically as the sigmoid curve reaches its lower limit. Each specimen from the study was diluted in the same manner and individual 50% lysis points determined by linear regression.
# [7] = Safety of intensive dosing in PNH patients; assay type: in vivo, human; settings: intensive PEG treatment
# Text: as §1, §2, §3
# [8] = tested on: C3a; assay: C3a levels (ELISA) after single IV infusion; assay type: in vivo, human
# Protocol: C3a Split Product Testing: C3a was measured by ELISA (BD Pharmingen optEIA) using microtiter plates precoated with specific monoclonal antibodies against C3a. The standards, controls and test specimens were diluted and placed in duplicate into the wells and incubated to allow binding of the split products to the antibodies in the well. After washing away unbound proteins, a second anti-split products antibody, conjugated to an enzyme (horseradish peroxidase) was allowed to react with the split products bound to the first antibody on the plate. After an appropriate incubation time and washing, a chromogenic substrate for the enzyme was added to the wells, and the intensity of color that developed was determined spectrophotometrically. Three QC specimens were run on every assay.
# C3a ELISA Calculations: The optical densities (OD) for each of the wells containing the standards for the assay were entered as the dependent variables (Y) in a linear regression calculation (Microsoft Excel) in which the concentrations of the standards (provided by the kit manufacturer, BD Pharmingen) were the independent variables (X). The slope (m) and intercept (b) obtained from the regression analysis on a log-log were then used to calculate the concentrations of the unknowns (controls and test specimens). The formula for a straight line was used to calculate the unknown values using a log/log solution: LnY=mLnX+b, solved for X: X=exp (LnY−b)/m*dilution.
# [9] = tested on: total complement hemolytic activity (CH50); assay: CH50 after single IV infusion; assay type: in vivo, human
substance,measurement,setting,value
"Poly(oxy-1,2-ethanediyl), α-hydro-ω-hydroxy-, 15,15′-diester with N-acetyl-L-isoleucyl-L-cysteinyl-L-valyl-1-methyl-L-tryptophyl-L-glutaminyl-L-α-aspartyl-L-tryptophylglycyl-L-alanyl-L-histidyl-L-arginyl-L-cysteinyl-L-threonyl-2-[2-(2-aminoethoxy)ethoxy]acetyl-N^6-carboxy-L-lysinamide cyclic (2-->12)-(disulfide) [PEG]",terminal elimination half-life,[1]; Cohort 4 (2300 mg single IV),11.9 days
same,"peak concentration (Cmax), mean serum concentration","[1]; single IV 200 mg, at 1 hr post-dose (infusion start)",61 µg/mL
same,"peak concentration (Cmax), mean serum concentration","[1]; single IV 600 mg, at 1 hr post-dose (infusion start)",193 µg/mL
same,"peak concentration (Cmax), mean serum concentration","[1]; single IV 1500 mg, at 4 hrs",542 µg/mL
same,"peak concentration (Cmax), mean serum concentration","[1]; single IV 2300 mg, at 1 hr post-dose (infusion start)",708 µg/mL
same,mean Hb from day 1 of intensive therapy,[2],increased
same,"subjects with moderate TEAE (infusion-related reaction, dizziness, clamminess, nausea) that led to study discontinuation","[3]; 2300 mg cohort, one subject, percent of the twenty subjects",5.0%
same,incidence of diarrhea (TEAE),"[3]; PEG groups, n=2",12.5%
same,incidence of headache (TEAE),"[3]; PEG groups, n=6",37.5%
same,"serious adverse events, deaths, severe TEAEs","[3]; healthy subjects, single IV 200-2300 mg","No serious adverse events, deaths, or severe TEAEs occurred"
same,patients with LDH levels decreased at day 7-12,"[4]; all 13 patients, intensive SC or IV PEG",13 patients
same,patients with LDH levels decreased between day 1 and day 2,"[4]; all evaluable patients, intensive SC or IV PEG 1080 mg",8 of 12
same,patients with LDH levels further decreased from day 7-12 to day 14-19,"[4]; all patients, intensive SC or IV PEG",11 of 13
same,patients with LDH levels further decreased from day 7-12 to day 14-19,[4]; intensive IV PEG,3 of 4
same,patients with LDH levels decreased between day 1 and day 2,[4]; intensive IV PEG (single 1080 mg dose),4 of 4
same,patients with LDH levels further decreased from day 7-12 to day 14-19,[4]; intensive SC PEG,7 of 9
same,patients with LDH levels decreased between day 1 and day 2,[4]; intensive SC PEG (1080 mg every 24 hours for 3 doses),4 of 8
same,incidence of upper respiratory infections (TEAE),[5],12.5%
same,AH50 level from 1 hr post-dosing start,[6]; 1500 and 2300 mg single IV doses,undetectable levels
same,time within which decreases in mean AH50 values were detected,[6]; all PEG cohorts (200-2300 mg single IV),≤ 1 h
same,mean maximum decrease of AH50 compared to placebo,"[6]; all PEG groups, p<0.0001",statistically significant larger
same,time for which decrease in mean AH50 was maintained,[6]; single IV 200 mg,at least 12 hrs
same,time for which decrease in mean AH50 was maintained,[6]; single IV 600 mg,≥ 72 h
same,time for which decrease in mean AH50 was maintained,[6]; single IV 1500 mg,≥ 144 h
same,patients with serious adverse events,[7]; 4 of 13 patients,31%
same,patients with treatment-emergent adverse events,[7]; Nine of 13 patients,69%
same,adverse events leading to treatment discontinuation,[7],None of the adverse events led to treatment discontinuation
same,adverse events of meningitis or thrombosis,[7],No adverse events of meningitis or thrombosis occurred
same,share of treatment-emergent adverse events that were mild,[7],76%
same,time within which initial rapid decrease in mean C3a levels occurred,[8]; all PEG groups,≤ 1 h
same,time of trough mean C3a levels after dosing,[8]; all dose groups,≤ 24 h
same,maximum mean C3a decrease from baseline,"[8]; single IV 1500 mg, at 4 hours post-dosing start",57%
same,Mean CH50 upon dosing,[9]; all cohorts,decreased immediately
same,time for which decrease in mean CH50 was retained,[9]; single IV 1500 mg,at least 48 hours
same,time by which mean CH50 returned to baseline,"[9]; single IV 2300 mg, post-dosing start",≤ 24 h

# Reference: patent US20260069653A1, “COMPLEMENT INHIBITOR DOSING REGIMENS” (Apellis Pharmaceuticals, Inc., priority 2021, published 2026)
